We go through 10 sequences from patent US12156909B2, “Reverse peptide vaccine” (Emergex Vaccines Holding Limited, priority 2018, dated 2024).

For one assay, the system named is HLA-A24. The assay can be described thus: HLA binding of NEG8 peptides shared with other flu proteins (Table 5), A24. Conditions: no method or unit given. From the text: (§1) was used to search datasets of T cell epitopes derived from influenza virus infected cells. The NEG8 peptides described in Examples 1 and 2 were also identified using this search. The purpose of performing the search was to establish whether any NEG8 peptides or sequences within the polypeptide encoded by the NEG8 ORF are shared with any other influenza A virus proteins. Table 5 sets out T cell epitopes derived from influenza A virus proteins other than NEG8 that are also comprised in one or more of the NEG8 peptides identified in Examples 1 and 2 or the polypeptide encoded by the NEG8 ORF. From this, numerous NEG8 peptides considered to bind to MHC in cells infected with influenza A virus can be identified based on confidence level, XCorr, and performance of fragment mass spectra.

Another assay concerns HLA-A2. Put plainly: HLA binding of NEG8 peptides shared with other flu proteins (Table 5), A2. Conditions: score printed after 'A2:'; no method or unit given.
From the text: as §1

The next assay relates to HLA-B7. The assay can be described thus: HLA binding of NEG8 peptides shared with other flu proteins (Table 5), B7. Conditions: score printed after 'B7:'; no method or unit given.
From the text: as §1

For another assay, the system named is MHC class I. The format is cell-based.

For the sequence AFNMMFLSM, the “HLA binding A24” value in the assay on HLA-A24 was “A24:7”. For the same sequence, the “HLA binding A2” value in the assay on HLA-A2 is “A2:10”.

For AFSVMFLSM, the “HLA binding A24” value in the assay on HLA-A24 was “A24:7”.

In the case of AILSLQTFD (Influenza A virus), in the assay with HLA-A24, the “HLA binding A24” value is reported as “A24:2”.

With ALSSIRVSS (Influenza A virus), the “HLA binding A2” value in the assay on HLA-A2 is given as “A2:16”. Further, the “HLA binding B7” value in the assay with HLA-B7 is “B7:7”.

Consider FLICVSPLQL (Influenza A virus), for which the “HLA binding A24” value with HLA-A24 is “A24:13”. The “HLA binding A2” value in the assay on HLA-A2 is recorded as “A2:24”.

In the case of IAPSSVKALS (Influenza A virus), in the assay with MHC class I, the “found in influenza A virus-infected cells” value (from here on “found”) is listed as “truly found in influenza A virus-infected cells”.

KITLKFAFNMM (Influenza A virus): the “found” value in the assay with MHC class I is “truly found in influenza A virus-infected cells”.

For LFLICVSLL (Influenza A virus), the “HLA binding A24” value in the assay on HLA-A24 is listed as “A24:21”. Moreover, in the assay on HLA-A2, the “HLA binding A2” value was “A2:18”.

On to LMQRGPSTF (Influenza A virus), for which the “found” value in the assay on MHC class I was “truly found in influenza A virus-infected cells”.

For the sequence SPLQLAILSL (Influenza A virus), the “HLA binding B7” value with HLA-B7 was “B7:22”.
